Measured values reported in patent US20230381328A1, “COMPOUND FOR THE PREVENTION OR TREATMENT OF MYASTHENIA GRAVIS” (ABLEVIA BIOTECH GMBH, priority 2020, published 2023).

The substances below were run on myasthenogenic antibody mAB 198 (assay: Peptide microarray mimotope screen, binding of mAB 198 to linear and cyclic peptides (fluorescence readout)). Conditions: cyclic mimotopes; binding of mAB 198, relative fluorescent signal after normalization against background.
Set-up: species or system rat
Description: A custom peptide array of 30000 peptides was synthesized, with peptides of 7-19 amino acids in size; the peptides were based on substitution analyses of 176 AChR-MIR peptides with exchanges of each amino acid positions by each of the 20 common amino acids. Peptides were synthesized directly on a microarray, and screened with monoclonal antibody mAB 198 in order to obtain mimotopes with a binding strength which was improved over the human AChR alpha chain MIR-containing sequence […] (Tzartos et al, 1991; Luo et al, 2009) and over a previously published mimotope sequence ([…]), that was derived from Torpedo AchR with the help of antibody mAB 132A (Trinh et al, 2014). In particular, the wild type AChR-MIR sequence is known to structurally mimic to a certain extent the epitope recognized by myasthenogenic, unwanted and disease-causing antibodies from patients. The mimotope peptide library was designed by permutation of each single amino acid position of these two sequences with all natural amino acids in order to provide a maximally diversified collection of peptide variants. All peptides were synthesized in doublets as linear and as cyclic peptides. The aim was to obtain peptides (mimotopes) that mimic the natural epitope of myasthenogenic antibodies.
For the mimotope screen, the antibody mAB 198 (Absolute Antibody Ltd, UK) was used. This is a prototype antibody that was generated in rats using human AChR (Tzartos et al, 1983; Asher et al, 1993). […] Therefore, mAB198 was used as a surrogate probe to screen for new mimotopes that are capable of mimicking the corresponding AChR-MIR epitope or portions of the epitope.
As a readout, binding of mAB 198 to the 30000 linear and cyclic peptides was measured by fluorescence readout, and peptides were ranked according to their relative fluorescent signal after normalization against the background.
The top-ranked 100 linear and cyclic mimotopes are listed in Table 1 and Table 2 above, respectively.

Going from 101 (VRLRWNPADYP) [compound 101] to 102 (RLRVNPADY) [compound 102], the “relative signal [%]” value falls from 100.0% to 61.3%.

First: 103 (LRVNPADYG) [compound 103]
Second: 104 (WIDVRLRGNPA) [compound 104]
The “relative signal [%]” value of the first is higher: 45.1% for the first, 43.2% for the second.

First: 105 (RLNPADY) [compound 105]
Second: 106 (RFNPADY) [compound 106]
The “relative signal [%]” value of the first is higher: 42.3% for the first, 37.5% for the second.

Compared with 107 (RLRLNPADY) [compound 107], 108 (RLRGNPADY) [compound 108] is lower in “relative signal [%]” value: 37.3% for the first, 32.7% for the second.

Compared with 109 (DVRLRINPADY) [compound 109], 110 (DVRLRVNPADY) [compound 110] is lower in “relative signal [%]” value: 31.4% for the first, 30.2% for the second.

First: 111 (RINPADY) [compound 111]
Second: 112 (LRLNPADYG) [compound 112]
The “relative signal [%]” value of the first is higher: 28.9% for the first, 28.6% for the second.

Compared with 113 (LRRNPAD) [compound 113], 114 (SLRINPADY) [compound 114] is lower in “relative signal [%]” value: 28.2% for the first, 28.0% for the second.

Going from 115 (DVRLRFNPADY) [compound 115] to 116 (NPADYRG) [compound 116], the “relative signal [%]” value falls from 27.7% to 27.4%.

Compared with 117 (SLRVNPADY) [compound 117], 118 (RLRINPADY) [compound 118] is lower in “relative signal [%]” value: 26.5% for the first, 25.5% for the second.

Same assay, conditions: linear mimotopes; binding of mAB 198, relative fluorescent signal after normalization against background

First: 1 (LRRNPAD) [compound 1]
Second: 2 (NPADYRG) [compound 2]
The “relative signal [%]” value of the first is higher: 100.0% for the first, 71.4% for the second.

First: 3 (NPADYHG) [compound 3]
Second: 4 (VRLRWNPADYP) [compound 4]
The “relative signal [%]” value of the first is higher: 59.3% for the first, 56.7% for the second.

First: 5 (LRGNPAD) [compound 5]
Second: 6 (WNPADYR) [compound 6]
The “relative signal [%]” value of the first is higher: 48.0% for the first, 40.6% for the second.

First: 7 (LRFNPAD) [compound 7]
Second: 8 (GSLRYNP) [compound 8]
The “relative signal [%]” value of the first is higher: 37.1% for the first, 34.4% for the second.

Compared with 9 (LRVNPADYG) [compound 9], 10 (LRRNPADYG) [compound 10] is lower in “relative signal [%]” value: 31.6% for the first, 28.3% for the second.

Compared with 11 (VRLRFNP) [compound 11], 12 (VRLRYNP) [compound 12] is lower in “relative signal [%]” value: 27.1% for the first, 26.3% for the second.

First: 13 (LRLNPAD) [compound 13]
Second: 14 (VRLRRNPAD) [compound 14]
The “relative signal [%]” value of the first is higher: 25.2% for the first, 25.0% for the second.

Compared with 15 (RFNPADY) [compound 15], 16 (GSLRFNP) [compound 16] is lower in “relative signal [%]” value: 21.8% for the first, 21.6% for the second.

Going from 17 (NPDDYHG) [compound 17] to 18 (NPADYGY) [compound 18], the “relative signal [%]” value falls from 21.3% to 21.2%.

Going from 19 (WNPADYP) [compound 19] to 20 (RLHWNPADY) [compound 20], the “relative signal [%]” value falls from 20.5% to 20.2%.

First: 21 (QWIDVRLRFNP) [compound 21]
Second: 22 (NPADYPG) [compound 22]
The “relative signal [%]” value of the first is higher: 20.1% for the first, 19.8% for the second.

First: 23 (NPADYGH) [compound 23]
Second: 24 (RLNPADY) [compound 24]
The “relative signal [%]” value of the first is higher: 18.1% for the first, 17.7% for the second.

Going from 25 (LRLNPADYG) [compound 25] to 26 (LLGGGSLRFNP) [compound 26], the “relative signal [%]” value falls from 17.3% to 16.7%.

Compared with 27 (RYNPADY) [compound 27], 28 (LRYNPAD) [compound 28] is lower in “relative signal [%]” value: 16.5% for the first, 15.9% for the second.

Compared with 29 (LHWNPAD) [compound 29], 30 (LRWNPADYH) [compound 30] is lower in “relative signal [%]” value: 15.7% for the first, 15.3% for the second.

Compared with 31 (IDVRLRFNP) [compound 31], 32 (RLRVNPADY) [compound 32] is lower in “relative signal [%]” value: 15.0% for the first, 14.9% for the second.

First: 33 (NPADYGD) [compound 33]
Second: 34 (WNPADYGHI) [compound 34]
The “relative signal [%]” value of the first is higher: 14.1% for the first, 13.7% for the second.

First: 35 (YNLKFNP) [compound 35]
Second: 36 (SLHWNPADY) [compound 36]
The “relative signal [%]” value of the first is higher: 13.7% for the first, 13.6% for the second.

First: 37 (QWIDVRLRYNP) [compound 37]
Second: 38 (RGNPADYGG) [compound 38]
The “relative signal [%]” value of the first is higher: 13.4% for the first, 13.0% for the second.

Going from 39 (GGGSLRFNP) [compound 39] to 40 (LRINPADYG) [compound 40], the “relative signal [%]” value falls from 13.0% to 12.6%.

Compared with 41 (RWNPADF) [compound 41], 42 (RLRWNPADYHG) [compound 42] is lower in “relative signal [%]” value: 12.6% for the first, 12.4% for the second.

43 (IDVRLRYNP) [compound 43] and 44 (RINPADY) [compound 44] are the same in “relative signal [%]” value: 12.2% for the first, 12.2% for the second.

Compared with 45 (NPADYGR) [compound 45], 46 (RLRFNPADY) [compound 46] is lower in “relative signal [%]” value: 12.2% for the first, 11.4% for the second.

Compared with 47 (WNPDDYR) [compound 47], 48 (CNLKFNP) [compound 48] is lower in “relative signal [%]” value: 11.4% for the first, 11.0% for the second.

49 (SLRINPADY) [compound 49] and 50 (RLYWNPADY) [compound 50] are the same in “relative signal [%]” value: 11.0% for the first, 11.0% for the second.

Going from 51 (QWVDYNLKFNP) [compound 51] to 52 (GGGSLRRNPAD) [compound 52], the “relative signal [%]” value falls from 10.9% to 10.6%.

53 (LRWNPADYGGF) [compound 53] and 54 (SLRWNPADYHG) [compound 54] are the same in “relative signal [%]” value: 10.6% for the first, 10.6% for the second.

First: 55 (NPADYDG) [compound 55]
Second: 56 (DVRLRFNPADY) [compound 56]
The “relative signal [%]” value of the first is higher: 10.3% for the first, 10.0% for the second.

Going from 57 (RRNPADY) [compound 57] to 58 (RPNPADY) [compound 58], the “relative signal [%]” value falls from 9.9% to 9.5%.

Compared with 59 (GSLRRNPAD) [compound 59], 60 (WNPADYH) [compound 60] is lower in “relative signal [%]” value: 9.5% for the first, 9.4% for the second.

Going from 61 (RWNPADYGH) [compound 61] to 62 (GSLRFNPAD) [compound 62], the “relative signal [%]” value falls from 9.4% to 9.3%.

First: 63 (LRINPAD) [compound 63]
Second: 64 (WRLRWNPAD) [compound 64]
The “relative signal [%]” value of the first is higher: 9.2% for the first, 9.0% for the second.

65 (GNPADYGGI) [compound 65] and 66 (RHNPADY) [compound 66] are the same in “relative signal [%]” value: 8.9% for the first, 8.9% for the second.

Compared with 67 (WNPDDYGHV) [compound 67], 68 (RPNPADYGG) [compound 68] is lower in “relative signal [%]” value: 8.8% for the first, 8.6% for the second.

Compared with 69 (DVRLRINPADY) [compound 69], 70 (YNLKYNP) [compound 70] is lower in “relative signal [%]” value: 8.5% for the first, 8.3% for the second.

71 (GGGSLRFNPAD) [compound 71] and 72 (VRHRWNPAD) [compound 72] are the same in “relative signal [%]” value: 8.1% for the first, 8.1% for the second.

First: 73 (NPADYGI) [compound 73]
Second: 74 (IDVRLRFNPAD) [compound 74]
The “relative signal [%]” value of the first is higher: 8.0% for the first, 7.9% for the second.

Going from 75 (NPDDYGH) [compound 75] to 76 (VPLRWNPAD) [compound 76], the “relative signal [%]” value falls from 7.7% to 7.6%.

77 (YNLPWNP) [compound 77] and 78 (VDYNLKFNP) [compound 78] are the same in “relative signal [%]” value: 7.6% for the first, 7.6% for the second.

Compared with 79 (HWNPADY) [compound 79], 80 (RTNPADY) [compound 80] is lower in “relative signal [%]” value: 7.4% for the first, 7.2% for the second.

First: 81 (LRWNPADYHGI) [compound 81]
Second: 82 (GGGSLRYNP) [compound 82]
The “relative signal [%]” value of the first is higher: 7.2% for the first, 7.1% for the second.

83 (RLRGNPADY) [compound 83] and 84 (RGNPADY) [compound 84] are the same in “relative signal [%]” value: 6.9% for the first, 6.9% for the second.

85 (VDCNLKFNP) [compound 85] and 86 (DVRLRWNPSDY) [compound 86] are the same in “relative signal [%]” value: 6.8% for the first, 6.8% for the second.

Going from 87 (RIRWNPADY) [compound 87] to 88 (HRLRWNPAD) [compound 88], the “relative signal [%]” value falls from 6.8% to 6.7%.

89 (SLRVNPADY) [compound 89] and 90 (CNLKYNP) [compound 90] are the same in “relative signal [%]” value: 6.7% for the first, 6.7% for the second.

Going from 91 (HSLRWNPAD) [compound 91] to 92 (NPADYGN) [compound 92], the “relative signal [%]” value falls from 6.6% to 6.5%.

93 (LRWNPADYPGI) [compound 93] and 94 (RLRYNPADY) [compound 94] are the same in “relative signal [%]” value: 6.5% for the first, 6.5% for the second.

Going from 95 (SLRFNPADY) [compound 95] to 96 (QWVDCNLKFNP) [compound 96], the “relative signal [%]” value falls from 6.5% to 6.4%.

97 (LRPNPADYG) [compound 97] and 98 (VDCNLKYNP) [compound 98] are the same in “relative signal [%]” value: 6.1% for the first, 6.1% for the second.

99 (ALRWNPADY) [compound 99] and 100 (NPADYGV) [compound 100] are the same in “relative signal [%]” value: 6.0% for the first, 6.0% for the second.
